Measured values reported in patent publication US20220251036A1, “DIFLUOROHALOALLYLAMINE SULFONE DERIVATIVE INHIBITORS OF LYSYL OXIDASES, METHODS OF PREPARATION, AND USES THEREOF” (PHARMAXIS LTD., priority 2019, published 2022).

Columns and labels:
[1] = molecular target: T1, Human recombinant SSAO/VAP-1 (Homo sapiens, UniProt Q16853); test: SSAO/VAP-1 inhibition; assay type: biochemical; conditions: 30 min incubation at 37° C, benzylamine 600 μM
T1 construct: residues 34-763 of human SSAO/VAP-1; TEV cleavage site (N); made in house
T1 sequence (Q16853 34-763): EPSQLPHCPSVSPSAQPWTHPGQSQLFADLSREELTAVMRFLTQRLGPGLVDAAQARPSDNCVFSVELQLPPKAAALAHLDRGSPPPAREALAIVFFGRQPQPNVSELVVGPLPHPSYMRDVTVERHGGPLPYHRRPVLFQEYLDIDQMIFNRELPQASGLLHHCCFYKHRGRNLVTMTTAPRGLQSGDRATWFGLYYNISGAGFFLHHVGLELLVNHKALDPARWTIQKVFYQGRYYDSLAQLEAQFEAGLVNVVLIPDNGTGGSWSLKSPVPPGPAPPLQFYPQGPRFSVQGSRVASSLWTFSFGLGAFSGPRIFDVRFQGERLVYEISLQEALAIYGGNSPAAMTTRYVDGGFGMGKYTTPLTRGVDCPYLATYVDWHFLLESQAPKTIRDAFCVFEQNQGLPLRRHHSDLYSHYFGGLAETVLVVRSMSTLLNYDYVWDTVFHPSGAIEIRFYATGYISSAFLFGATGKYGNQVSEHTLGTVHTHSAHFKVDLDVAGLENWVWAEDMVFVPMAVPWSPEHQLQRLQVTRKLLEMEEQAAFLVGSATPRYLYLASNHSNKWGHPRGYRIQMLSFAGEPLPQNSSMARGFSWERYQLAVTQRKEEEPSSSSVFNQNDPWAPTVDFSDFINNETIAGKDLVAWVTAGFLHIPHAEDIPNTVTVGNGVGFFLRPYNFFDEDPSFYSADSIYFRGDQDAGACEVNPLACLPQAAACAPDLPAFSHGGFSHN
Method: Human recombinant SSAO/VAP-1 amine oxidase activity was determined using the coupled colorimetric method as described for monoamine oxidase, copper-containing amine oxidases and related enzymes (Holt A. and Palcic M., A peroxidase-coupled continuous absorbance plate-reader assay for flavin monoamine oxidases, copper-containing amine oxidases and related enzymes. Nat Protoc 2006; 1: 2498-2505). Briefly, a cloned cDNA template corresponding to residues 34-763 of human SSAO/VAP-1, and incorporating a mouse Ig kappa (κ) signal sequence, N-terminal flag epitope tag and tobacco etch virus (TEV) cleavage site, was assembled in a mammalian expression vector (pLO-CMV) by Geneart AG. This vector containing human SSAO/VAP-1 residues was transfected into CHO-K1 glycosylation mutant cell line, Lee 8. A clone stably expressing human SSAO/VAP-1 was isolated and cultured in large scale. Active human SSAO/VAP-1 was purified and recovered using immunoaffinity chromatography. This was used as the source for SSAO/VAP-1 activity. A high-throughput fluorescent assay was developed using either 96 or 384 well format. Briefly, in a standard 96 well plate assay 50 μL of purified human SSAO/VAP-1 (0.25 μg/mL) in 0.1 M sodium phophate buffer (pH 7.4) was added into each well. Test compounds were dissolved in DMSO and tested in a Concentration Response Curve (CRC) with 4-11 data points, typically in the micromolar or nanomolar range after incubation with human SSAO/VAP-1 for 30 min at 37° C. After 30 min incubation, 50 μL of the reaction mixture containing 600 μM benzylamine (Sigma Aldrich), 120 μM Amplex Red (Sigma Aldrich) and 1.5 U/mL horseradish peroxidase (Sigma Aldrich) prepared in 0.1 M sodium phosphate buffer (pH 7.4) were added to the corresponding well. The fluorescence unit (RFU) was read every 2.5 min for 30 min at 37° C. excitation 565 nm and emission 590 (Optima; BMG labtech). The slope of the kinetics for each well was calculated using MARS data analysis software (BMG labtech) and this value was used to deduce the IC50 value (Dotmatics).

recombinant human DAO = molecular target: T2, recombinant human DAO (Homo sapiens, UniProt P19801); test: DAO inhibition; assay type: biochemical; conditions: 2 hours incubation
T2 construct: Gift: Prof; Boehm, Department of Clinical Pharmacology, Medical University, Vienna
T2 sequence (P19801 20-751): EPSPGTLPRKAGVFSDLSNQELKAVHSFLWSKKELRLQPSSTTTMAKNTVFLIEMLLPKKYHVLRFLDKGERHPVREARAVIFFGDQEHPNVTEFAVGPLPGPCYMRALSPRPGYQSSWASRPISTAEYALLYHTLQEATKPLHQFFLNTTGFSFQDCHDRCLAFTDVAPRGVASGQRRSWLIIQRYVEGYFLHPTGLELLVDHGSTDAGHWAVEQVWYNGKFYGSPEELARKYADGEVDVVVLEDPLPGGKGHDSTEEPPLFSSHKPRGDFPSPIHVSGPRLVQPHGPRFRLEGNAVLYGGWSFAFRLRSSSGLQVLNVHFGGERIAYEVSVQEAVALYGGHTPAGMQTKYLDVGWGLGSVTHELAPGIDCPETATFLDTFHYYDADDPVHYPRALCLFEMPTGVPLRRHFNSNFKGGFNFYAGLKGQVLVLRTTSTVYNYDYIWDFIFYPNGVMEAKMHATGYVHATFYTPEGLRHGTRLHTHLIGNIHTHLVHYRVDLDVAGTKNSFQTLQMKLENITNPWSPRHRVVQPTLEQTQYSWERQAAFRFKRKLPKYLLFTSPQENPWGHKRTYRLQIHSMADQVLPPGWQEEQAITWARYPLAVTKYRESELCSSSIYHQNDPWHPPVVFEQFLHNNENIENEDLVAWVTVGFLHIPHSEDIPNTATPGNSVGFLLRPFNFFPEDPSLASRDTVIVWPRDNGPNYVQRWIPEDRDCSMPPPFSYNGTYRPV
Method: The specificity of the compounds of this invention was tested by determining their ability to inhibit DAO activity in vitro, using recombinant human DAO (100 ng/mL; kindly provided by Prof. Boehm, Department of Clinical Pharmacology, Medical University, Vienna). The assay was performed in a similar way as for human SSAO/VAP-1 (Example 8) except, the incubation with the test compounds was extended to 2 hours, and the substrate […] was used at 100 μM in place of benzylamine.

IC50 [1]	Structure (SMILES)	IC50 (recombinant human DAO)
18 µM	CNc1ccccc1S(=O)(=O)C(F)(F)/C(F)=C/CN [Compound 4, (Z)-2-((4-amino-1,1,2-trifluorobut-2-en-yl)sulfony1)-N-methylaniline]	> 30 µM
> 30 µM	NC/C=C(\F)C(F)(F)S(=O)(=O)Cc1ccccc1 [Compound 8, (Z)-4-(benzylsulfony1)-3,4,4-trifluorobut-2-en-1-amine]	
14.7 µM	CS(=O)(=O)c1ccc(COc2ccccc2S(=O)(=O)C(F)(F)/C(F)=C/CN)cc1 [Compound 10, (Z)-3,4,4-trifluoro-4-((2-((4-(methylsulfonyl)benzyl)oxy)phenyl)sulfonyl) but-2-en-1-amine]	
> 30 µM	Cc1ccc(S(=O)(=O)C(F)(F)/C(F)=C/CN)cc1 [Compound 6, (Z)-3,4,4-trifluoro-4-tosylbut-2-en-1-amine]	
> 30 µM	Cc1ccccc1S(=O)(=O)C(F)(F)/C(F)=C/CN [Compound 5, (Z)-3,4,4-trifluoro-4-(o-tolylsulfonyl)but-2-en-1-amine]	
26.6 µM	NC/C=C(\F)C(F)(F)S(=O)(=O)c1cccs1 [Compound 14, (Z)-3,4,4-trifluoro-4-(thiophen-2-ylsulfonyl)but-2-en-1-amine]	

Structure (SMILES)	IC50 [1]	IC50 (recombinant human DAO)
N#CCCN [BAPN, β-aminopropionitrile, reference compound]	> 30 µM	> 30 µM
